According to ChEMBL document CHEMBL6109078, “Pyrylium derivatives as outer membrane permeabilizers against MDR gram-negative bacteria via multi-target mode of action” (Eur J Med Chem, 2025):
Active and inactive are the calls of the source. The calls are words filed in the database; no cut-off is given here.

Experiments:
Bacteria [1] = assay: Binding affinity to His-tagged LptC (unknown origin) extracted from Escherichia coli BL21 (DE3) cells by BLI analysis
Acinetobacter baumannii [2] = assay: Synergistic antibacterial activity against multi-drug resistant Acinetobacter baumannii clinical isolate 14 assessed as fractional inhibitory concentration index in presence of polymyxin B by checkerboard assay; format: functional
Acinetobacter baumannii [3] = assay: Antibacterial activity against Acinetobacter baumannii ATCC 19606 infected in Galleria mellonella larvae assessed as survival rate of larvae at 50 microg/ml measured after 96 hrs relative to control; format: functional
Escherichia coli [4] = assay: Antibacterial activity against Escherichia coli ATCC 25922 infected in Galleria mellonella larvae assessed as survival rate of larvae at 50 microg/ml relative to control; format: functional
Lipopolysaccharide (LPS) [5] = assay: Binding affinity to LPS (unknown origin) by BLI analysis; details: dose 3.13-25 µg/ml
Bacteria [6] = assay: Inhibition of His-tagged His-tagged LptA/LptC (unknown origin) protein-protein interaction extracted from Escherichia coli BL21 (DE3) cells by BLI analysis; details: dose 0.39-1.56 µg/ml
Acinetobacter baumannii [7] = assay: Synergistic antibacterial activity against Acinetobacter baumannii ATCC 19606 infected in Galleria mellonella larvae assessed as survival rate of larvae at 50 microg/ml measured after 96 hrs in presence of polymyxin B relative to control; format: functional
Lipopolysaccharide (LPS) [8] = assay: Binding affinity to LPS (unknown origin) assessed as dissociation constant by BLI analysis
Lipopolysaccharide (LPS) [9] = assay: Binding affinity to LPS (unknown origin) assessed as exothermic heat release at 100 mM by ITC analysis; details: time <= 40.0 min
Escherichia coli [10] = assay: Synergistic antibacterial activity against Escherichia coli ATCC 25922 infected in Galleria mellonella larvae assessed as survival rate of larvae at 50 microg/ml in presence of polymyxin B relative to control; format: functional
Cell membrane = assay: Disruption of outer membrane integrity in Escherichia coli ATCC 25922 assessed as increase in EtBr uptake by fluorescence plate reader analysis

With `CN1CCOc2cc(/C=C/c3cc(C(C)(C)C)[o+]c(C(C)(C)C)c3)ccc21.O=S(=O)([O-])C(F)(F)F` the Activity (Bacteria [1]) was “inactive”.
With `CCN(CC)c1ccc(/C=C/c2cc(C(C)(C)C)[o+]c(C(C)(C)C)c2)cc1.O=S(=O)([O-])C(F)(F)F` the “fractional inhibitory concentration index (FICI)” value (Acinetobacter baumannii [2]) was 0.141, the survival at 50 µg/mL (Acinetobacter baumannii [3]) was 10% and the survival at 50 µg/mL (Escherichia coli [4]) was 20%. The Activity (Lipopolysaccharide (LPS) [5]) was “Dose-dependent-effect”, the inhibition (Bacteria [6]) was “Dose-dependent-effect” and the survival at 50 µg/mL (Acinetobacter baumannii [7]) was 80%. For the same compound, the Kd (Lipopolysaccharide (LPS) [8]) was 4 µM, the Activity (Lipopolysaccharide (LPS) [9]) was “Time-dependent-effect” and the survival at 50 µg/mL (Escherichia coli [10]) was 70%. For the same compound, the Activity (Cell membrane) was “Dose-dependent-effect”.
In the case of `CC(C)(C)c1cc(/C=C/c2ccc(N3CCCC3)cc2)cc(C(C)(C)C)[o+]1.O=S(=O)([O-])C(F)(F)F`, the “fractional inhibitory concentration index (FICI)” value (Acinetobacter baumannii [2]) is reported as 0.313 and the Activity (Cell membrane) is reported as “Dose-dependent-effect”.
